In ChEMBL document CHEMBL1133051, “Design and synthesis of a novel water soluble benzotetrazepinone” (Bioorg Med Chem Lett, 2000):

Tested on: MCF7
Assay: Inhibitory concentration of compound against Mer+ breast tumor cell line MCF-7
Assay type: functional, cell-based
Conditions: Homo sapiens

Compound	IC50
Cn1nnc2c(C(N)=O)ncn2c1=O [TEMOZOLOMIDE]	800 µM
CN1N=Nc2cc(C(=O)NCCN3CCOCC3)ccc2N(C)C1=O	80 µM
